Converted amounts (≈) assume the structure as drawn.
Experiments:
Staphylococcus aureus [1] = experiment: Antibacterial activity against methicillin resistant Staphylococcus aureus assessed as inhibition of bacterial growth incubated for 18 hrs by CLSI based serial agar dilution method; type: functional
Staphylococcus aureus [2] = experiment: Antibacterial activity against methicillin resistant Staphylococcus aureus 032 assessed as inhibition of bacterial growth incubated for 18 hrs by CLSI based serial agar dilution method; type: functional
Staphylococcus aureus [3] = experiment: Antibacterial activity against methicillin resistant Staphylococcus aureus 5076 harbouring DNA gyrase and topoisomerase IV mutant and efflux pump assessed as inhibition of bacterial growth incubated for 18 hrs in presence of efflux inhibitor by CLSI based serial agar dilution method; type: functional
Streptococcus pneumoniae [4] = experiment: Antibacterial activity against beta-lactams, macrolide and fluoroquinolone resistant Streptococcus pneumoniae 718 infected in po dosed Swiss mouse septicemia model assessed as protective dose administered on 1 and 5 hrs post infection and measured on day 7; type: functional, organism-based
[5] = Mutagenicity in Swiss mouse assessed as chromosomal aberration in bone marrow cells at 400 mg/kg, po measured after 24 hrs relative to control; type: toxicity, organism-based; details: in vivo
Streptococcus pneumoniae [6] = experiment: Antibacterial activity against Streptococcus pneumoniae 5844 harbouring moxifloxacin resistant DNA gyrase and topoisomerase IV mutant assessed as inhibition of bacterial growth incubated for 18 hrs by CLSI based serial agar dilution method; type: functional; details: Streptococcus pneumoniae, 5844, 18 h
Streptococcus pneumoniae [7] = experiment: Antibacterial activity against fluoroquinolone efflux positive Streptococcus pneumoniae 706 assessed as inhibition of bacterial growth incubated for 18 hrs by CLSI based serial agar dilution method; type: functional
Streptococcus pneumoniae [8] = experiment: Antibacterial activity against beta-lactams, macrolide and fluoroquinolone resistant Streptococcus pneumoniae 718 assessed as inhibition of bacterial growth incubated for 18 hrs by CLSI based serial agar dilution method; type: functional
Streptococcus pneumoniae [9] = experiment: Antibacterial activity against Streptococcus pneumoniae assessed as inhibition of bacterial growth incubated for 18 hrs by CLSI based serial agar dilution method; type: functional; details: 18 h
[10] = Induction of drug resistance in methicillin resistant Staphylococcus aureus assessed as increase in MIC measured after 10 passages (reference value: 0.4 ug/ml); type: functional
Staphylococcus aureus [11] = experiment: Antibacterial activity against Staphylococcus aureus […] assessed as inhibition of bacterial growth incubated for 18 hrs by CLSI based serial agar dilution method; type: functional
Staphylococcus aureus [12] = experiment: Antibacterial activity against methicillin resistant Staphylococcus aureus 5076 assessed as inhibition of bacterial growth incubated for 18 hrs by CLSI based serial agar dilution method; type: functional
[13] = Staphylococcus aureus, read-out: MIC
[14] = Staphylococcus aureus, 032, 18 h, read-out: MIC
[15] = Streptococcus pneumoniae, read-out: MIC
[16] = Streptococcus pneumoniae, 718, 18 h, read-out: MIC

COc1c(N2CCC(N)C(C)(C)C2)c(F)cc2c(=O)c(C(=O)O)cn(C3CC3)c12 (stereo in doubt; form 1)
MIC (Staphylococcus aureus [1]; [13]): 0.05 µg/mL (≈ 0.124 µM) | MIC (Staphylococcus aureus [2]; [14]): 0.6 µg/mL (≈ 1.49 µM) | MIC (Staphylococcus aureus [3]): 1.56 µg/mL | EC50 (Streptococcus pneumoniae [4]): 30 mg/kg | Activity [5]: 5.83%

CCC1(CC)CN(c2c(F)cc3c(=O)c(C(=O)O)cn(C4CC4)c3c2OC)CCC1N (stereo not given)
MIC (Streptococcus pneumoniae [6]): 6.25 µg/mL (≈ 14.5 µM) | MIC (Streptococcus pneumoniae [7]): < 0.4 µg/mL

Cc1c(N2CCC(N)C(C)C2)c(F)cc2c(=O)c(C(=O)O)cn(C3CC3)c12 (trans isomer)
MIC (Staphylococcus aureus [2]; [14]): 0.8 µg/mL (≈ 2.14 µM)

Cc1c(N2CCC(N)C(C)(C)C2)c(F)cc2c(=O)c(C(=O)O)cn(C3CC3)c12 (racemic)
MIC (Staphylococcus aureus [2]; 18 h): 1.56 µg/mL (≈ 4.03 µM) | MIC (Streptococcus pneumoniae [8]; 18 h): 1.56 µg/mL (≈ 4.03 µM)

COc1c(N2CCC(N)C(C)(C)C2)c(F)c(N)c2c(=O)c(C(=O)O)cn(C3CC3)c12 (stereo not given)
MIC (Staphylococcus aureus [1]; [13]): 3.12 µg/mL (≈ 7.46 µM) | MIC (Streptococcus pneumoniae [9]; [15]): 0.2 µg/mL (≈ 0.478 µM)

CC1(C)CN(c2nc3c(cc2F)c(=O)c(C(=O)O)cn3C2CC2)CCC1N (stereo not given)
MIC (Staphylococcus aureus [1]; [13]): > 12.5 µg/mL | MIC (Streptococcus pneumoniae [9]; [15]): 3.12 µg/mL (≈ 8.33 µM)

C[C@H]1CCc2c(N3CCC(O)CC3)c(F)cc3c(=O)c(C(=O)O)cn1c23 [LEVONADIFLOXACIN]
MIC (Staphylococcus aureus [1]; [13]): 0.4 µg/mL (≈ 1.11 µM) | MIC (Streptococcus pneumoniae [9]; [15]): 0.4 µg/mL (≈ 1.11 µM)

COc1c(N2C[C@@H]3CCCN[C@@H]3C2)c(F)cc2c(=O)c(C(=O)O)cn(C3CC3)c12 [MOXIFLOXACIN]
EC50 (Streptococcus pneumoniae [4]): > 100 mg/kg | MIC [10]: 6.25 µg/mL

C[C@H]1COc2c(N3CCN(C)CC3)c(F)cc3c(=O)c(C(=O)O)cn1c23.C[C@H]1COc2c(N3CCN(C)CC3)c(F)cc3c(=O)c(C(=O)O)cn1c23.O [LEVOFLOXACIN]
MIC (Staphylococcus aureus [2]; [14]): 6.25 µg/mL | EC50 (Streptococcus pneumoniae [4]): > 100 mg/kg

COc1c(N2CC(C)C(N)C(C)(C)C2)c(F)cc2c(=O)c(C(=O)O)cn(C3CC3)c12 (stereo not given)
MIC (Staphylococcus aureus [1]; [13]): 0.1 µg/mL (≈ 0.24 µM) | MIC (Streptococcus pneumoniae [9]; [15]): 0.2 µg/mL (≈ 0.479 µM)

COc1c(N2CC(C)C(N)C(C)C2)c(F)cc2c(=O)c(C(=O)O)cn(C3CC3)c12 (trans isomer)
MIC (Staphylococcus aureus [1]): 0.05 µg/mL (≈ 0.124 µM) | MIC (Streptococcus pneumoniae [9]): 0.2 µg/mL (≈ 0.496 µM)

CCNC1CCN(c2c(F)cc3c(=O)c(C(=O)O)cn(C4CC4)c3c2OC)CC1C (stereo not given)
MIC (Staphylococcus aureus [1]; [13]): 0.4 µg/mL (≈ 0.958 µM) | MIC (Streptococcus pneumoniae [9]; [15]): 1.56 µg/mL (≈ 3.74 µM)

Cc1c(F)c(N2CCC(N)C(C)(C)C2)cc2c1c(=O)c(C(=O)O)cn2C1CC1 (stereo not given)
MIC (Staphylococcus aureus [1]; [13]): > 12.5 µg/mL | MIC (Streptococcus pneumoniae [9]; [15]): 0.8 µg/mL (≈ 2.06 µM)

COc1c(N2CCC(NC3CC3)C(C)C2)c(F)cc2c(=O)c(C(=O)O)cn(C3CC3)c12 (stereo not given)
MIC (Staphylococcus aureus [1]; [13]): 0.4 µg/mL (≈ 0.931 µM) | MIC (Streptococcus pneumoniae [9]; [15]): 1.56 µg/mL (≈ 3.63 µM)

COc1c(N2CC(C)C(N)C(C)C2)c(F)cc2c(=O)c(C(=O)O)cn(C3CC3)c12 (cis isomer)
MIC (Staphylococcus aureus [1]): 0.1 µg/mL (≈ 0.248 µM)

CCC1CN(c2c(F)cc3c(=O)c(C(=O)O)cn(C4CC4)c3c2OC)CCC1N (stereo not given)
MIC (Staphylococcus aureus [1]; [13]): 0.1 µg/mL (≈ 0.248 µM) | MIC (Streptococcus pneumoniae [9]; [15]): 0.8 µg/mL (≈ 1.98 µM)

COc1c(N2CC[C@H](N)C(C)(C)C2)c(F)cc2c(=O)c(C(=O)O)cn(C3CC3)c12
MIC (Staphylococcus aureus [1]; [13]): 0.05 µg/mL (≈ 0.124 µM) | MIC (Staphylococcus aureus [2]; [14]): 0.8 µg/mL (≈ 1.98 µM) | MIC (Streptococcus pneumoniae [8]; [16]): 0.8 µg/mL (≈ 1.98 µM) | MIC (Staphylococcus aureus [11]): 0.05 µg/mL (≈ 0.124 µM) | MIC (Staphylococcus aureus [3]): 1.56 µg/mL | EC50 (Streptococcus pneumoniae [4]): 50 mg/kg

Cc1c(N2CCC(N)C(C)(C)C2)c(F)cc2c(=O)c(C(=O)O)cn(C3CC3)c12.Cl (racemic)
EC50 (Streptococcus pneumoniae [4]): 30 mg/kg

COc1c(N2CC(C)C(N)C(C)C2)c(F)cc2c(=O)c(C(=O)O)cn(C3CC3)c12 (stereo in doubt)
MIC (Staphylococcus aureus [1]; [13]): 0.1 µg/mL (≈ 0.248 µM) | MIC (Streptococcus pneumoniae [9]; [15]): 0.1 µg/mL (≈ 0.248 µM)

CNC1CCN(c2c(F)cc3c(=O)c(C(=O)O)cn(C4CC4)c3c2OC)CC1(C)C (stereo not given)
MIC (Staphylococcus aureus [1]; [13]): 0.2 µg/mL (≈ 0.479 µM) | MIC (Streptococcus pneumoniae [9]; [15]): 1.56 µg/mL (≈ 3.74 µM) | MIC (Streptococcus pneumoniae [7]): 1.56 µg/mL (≈ 3.74 µM)

CCC1(C)CN(c2c(F)cc3c(=O)c(C(=O)O)cn(C4CC4)c3c2OC)CCC1NC1CC1 (stereo not given)
MIC (Streptococcus pneumoniae [6]): > 6.25 µg/mL | MIC (Streptococcus pneumoniae [7]): 0.4 µg/mL (≈ 0.874 µM)

Cc1c(N2CCC(O)C(C)(C)C2)c(F)cc2c(=O)c(C(=O)O)cn(C3CC3)c12 (single isomer, unassigned; (+))
MIC (Staphylococcus aureus [2]; [14]): 0.2 µg/mL (≈ 0.515 µM) | MIC (Streptococcus pneumoniae [8]; [16]): 0.2 µg/mL (≈ 0.515 µM) | MIC (Staphylococcus aureus [11]): 0.003 µg/mL (≈ 0.00772 µM) | MIC (Staphylococcus aureus [12]): 0.2 µg/mL (≈ 0.515 µM) | MIC (Staphylococcus aureus [3]): 0.2 µg/mL

COc1c(N2CCC(N)C(C)C2)c(F)cc2c(=O)c(C(=O)O)cn(C3CC3)c12 (stereo not given)
MIC (Staphylococcus aureus [1]; [13]): 0.05 µg/mL (≈ 0.128 µM) | MIC (Streptococcus pneumoniae [9]; [15]): 0.2 µg/mL (≈ 0.514 µM)

Cc1c(F)c(N2CCC(N)C(C)(C)C2)c(F)c2c1c(=O)c(C(=O)O)cn2C1CC1 (stereo not given)
MIC (Staphylococcus aureus [1]; [13]): 3.12 µg/mL (≈ 7.7 µM) | MIC (Streptococcus pneumoniae [9]; [15]): 0.1 µg/mL (≈ 0.247 µM)

Cc1c(N2CCC(O)C(C)C2)c(F)cc2c(=O)c(C(=O)O)cn(C3CC3)c12 (stereo in doubt; form 2)
MIC (Staphylococcus aureus [2]): 0.2 µg/mL (≈ 0.534 µM) | MIC (Streptococcus pneumoniae [8]): 0.2 µg/mL (≈ 0.534 µM)

COc1c(N2CCNC(C)C2)c(F)cc2c(=O)c(C(=O)O)cn(C3CC3)c12 (stereo not given) [GATIFLOXACIN]
EC50 (Streptococcus pneumoniae [4]): > 100 mg/kg

Cc1c(N2CCC(O)C(C)(C)C2)c(F)cc2c(=O)c(C(=O)O)cn(C3CC3)c12.Cl (racemic)
MIC (Staphylococcus aureus [2]; [14]): 0.8 µg/mL | MIC (Streptococcus pneumoniae [8]; [16]): 0.8 µg/mL

COc1c(N2CCC(N)C(C)(C)C2)c(F)c(N)c2c(=O)c(C(=O)O)cn(-c3ccc(F)cc3F)c12 (stereo not given)
MIC (Staphylococcus aureus [1]; [13]): 12.5 µg/mL (≈ 25.5 µM) | MIC (Streptococcus pneumoniae [9]; [15]): 3.12 µg/mL (≈ 6.36 µM)

CCC1CN(c2c(F)cc3c(=O)c(C(=O)O)cn(C4CC4)c3c2OC)CCC1NC (stereo not given)
MIC (Staphylococcus aureus [1]; [13]): 0.2 µg/mL (≈ 0.479 µM) | MIC (Streptococcus pneumoniae [9]; [15]): 1.56 µg/mL (≈ 3.74 µM)
